Experimental data from patent publication US9815833B2, “Pyridine derivative and medical use thereof” (Chengdu Easton Biopharmaceuticals Co., Ltd., priority 2013, dated 2017).

Key:
[1] = system: APTT of healthy mice; experiment: Effects on APTT of healthy mice; format: in vivo, KM mice; conditions: 5 mg/kg i.g.; for APTT (sec): KM mice, blood collected 1 hour after administration, x ± SD, 10 mice per group; for anticoagulant effect (APTT) compared with positive drug Apixaban: mice, 1 h after administration, same dose
Description: Test for four coagulation parameters (including prothrombin time (PT), activated partial thromboplastin time (APTT), thrombin time (TT) and fibrinogen (FIB)) belongs to one of clinical inspection items, and is necessary to thrombotic disease inspections or before the surgery. APTT mainly reflects whether the intrinsic coagulation system status is normal or not. Accordingly, the APTT value is used as a detection indicator in this test of the present invention. The anticoagulant effects of the compounds prepared in the Examples of the present invention were evaluated through the effects thereof on APTT of mice.
(§1) KM mice, weighing 28-30 g, male, 170 mice, provided by Chengdu Dashuo Biological Technology Co., Ltd.; Production facility license: SCXK (Chuan) 2008-24. Animals were housed in the animal room after purchased, adaptively observed for at least three days, and used for assays unless they were qualified for the quarantine standard.
(1) Grouping: mice were grouped and tested according to Table 1, wherein there were 10 mice in each group.
Mice in each group were administrated with the corresponding investigational drugs (mice in control group were administrated with the normal saline). At 1 hour after administration, blood was collected into 0.5 ml vacuum blood-collection tube containing sodium citrate from mice orbit. APTT values of animals were measured after collecting the blood samples.
Excel was used for statistics, experimental data were expressed as (x±SD), and two-sided T-test method was used to statistically compare the experimental data among multiple groups.

[2] = Pharmacokinetic studies on healthy rats; format: in vivo; conditions: male, rat, po, SD rats, 10 mg/kg i.g., plasma; for AUC(0-t): read-out: AUC0-24
Description: SD rats were used as test animals, and LC/MS/MS method was applied for measuring the drug concentrations of rats at different time after administrating the compounds of the present invention by gavage, respectively. Pharmacokinetic behaviors of the compounds of the present invention on rats were studied, so as to evaluate the pharmacokinetic characteristics thereof.
as §1, with “SD rats,” for “KM mice,”, “180-220” for “28-30”, “40 rats, 5 rats in each group,” for “170 mice,”
3.1 Grouping: the rats were randomly grouped according to Table 3, with no significant difference among the groups;
Rats in each group was administrated by gavage with the corresponding investigational drugs according to Table 3, at 5 min, 10 min, 20 min, 30 min, 1 h, 2 h, 4 h, 6 h, 8 h, 10 h, 12 h, 24 h after administration, 0.5 ml of blood was taken into the vacuum blood-collection tubes containing heparin sodium, and centrifuged at 5,000 rpm to obtain plasma which was stored at −20° C.
50 μL plasma at each time after administration was taken, then 150 μL of acetonitrile was added, which was subjected to vortex at 1500 rpm for 2 minutes. Solution was centrifuged for 15 minutes (3500 r/min), after that 10 μL supernatant was analyzed by HPLC/MS/MS.
The pharmacokinetic behaviors of the investigational compounds were subjected to compartmental model fitting, and DAS 2.0 software was used to calculate the main pharmacokinetic parameters.

[3] = target: human FXa (Homo sapiens, UniProt P00742); experiment: Human FXa inhibition assay (fluorogenic substrate); format: biochemical; conditions: human FXa 1 nM, substrate 106.7 μM, 30 minutes at room temperature, pH 8.0
Description: Inhibitory effects of the compounds of the present invention on human FXa were studied, to measure IC50 values thereof on human FXa.
human FXa enzyme (Sekisui Diagnostics, REF 526);
Fluorogenic substrate for the FXa assay (American diagnostic, Product No. 222F);
Buffer: 20 mM Tris-HCl, 200 mM NaCl, 2.5 mM CaCl2, pH 8.0.
(2) 10 mM of each compound was 5-fold diluted serially with buffer to different concentrations (from 40 μM to 0.00002048 μM);
(3) 6 μL of the above diluted solutions of Step (2) were added into each well of 384-well plate to make a final volume of 60 μL, and the final concentration of the compound ranged from 4 μM to […];
(4) 30 μL of human FXa enzyme (2 nM) was added into each well, with a final concentration of 1 nM;
(5) 24 μL human FXa fluorescent enzyme substrate (266.7 μM) was added into each well, with a final concentration of 106.7 μM;
(6) the plate was gently shaked for 5 minutes and then incubated for 30 minutes at room temperature, with avoidance from light;
(7) fluorescence signal was read at 360/440 nm, the inhibition percentage was measured, and 4 Parameter Logistic Model in Xlfit software was employed to calculate IC50.

Sequence of human FXa (P00742 235-488 limits assumed): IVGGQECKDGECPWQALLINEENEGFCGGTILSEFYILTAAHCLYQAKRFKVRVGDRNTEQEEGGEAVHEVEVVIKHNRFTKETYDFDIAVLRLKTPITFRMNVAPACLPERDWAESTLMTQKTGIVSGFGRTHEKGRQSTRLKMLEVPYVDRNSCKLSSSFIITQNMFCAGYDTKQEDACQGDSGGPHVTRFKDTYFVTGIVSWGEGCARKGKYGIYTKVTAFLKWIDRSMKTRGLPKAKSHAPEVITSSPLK
Sequence of human FXa (P00742 41-179 partner limits assumed): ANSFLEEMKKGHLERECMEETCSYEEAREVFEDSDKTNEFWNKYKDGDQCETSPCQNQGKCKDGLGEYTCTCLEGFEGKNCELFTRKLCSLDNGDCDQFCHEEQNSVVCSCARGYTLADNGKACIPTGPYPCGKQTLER

Cmax [2] | Tmax [2] | half-life [2] | AUC(0-t) [2] | IC50 [3] | Structure (SMILES) | APTT (sec) [1] | anticoagulant effect (APTT) compared with positive drug Apixaban [1]
9670 ng/mL | 0.25 h | 6.8 h | 38600 ng·h/mL | 0.015 nM | Cc1cc(N2CCc3c(C(N)=O)nn(-c4cc(F)cc(F)c4)c3C2=O)ccc1N1CCCC1=O [Example 17, 1-(3,5-difluoro-phenyl)-7-oxo-6-[3-methyl-4-(2-oxo-pyrrolidin-1-yl)phenyl]-4,5,6,7-tetrahydro-1H-pyrazolo[3,4-c]pyridine-3-carboxamide] | 30.79 ± 2.91 * * ^ΔΔ sec | significantly better than positive drug Apixaban
8970 ng/mL | 0.25 h | 6.8 h | 35500 ng·h/mL | 0.091 nM | COc1ccc(-n2nc(C(N)=O)c3c2C(=O)N(c2ccc(N4CCCC4=O)c(C)c2)CC3)cc1F [Example 18, 1-(3-fluoro-4-methoxyphenyl)-7-oxo-6-[3-methyl-4-(2-oxo-pyrrolidin-1-yl)phenyl]-4,5,6,7-tetrahydro-1H-pyrazolo[3,4-c]pyridine-3-carboxamide] | 28.96 ± 2.42 * * ^ΔΔ sec | significantly better than positive drug Apixaban
